# Laboratory results: patent US11020378B2, “Compounds, compositions and methods for treating insulin resistance” (UNIVERSITE PARIS DESCARTES, priority 2017, dated 2021)
# Assays:
# [1] = target: T1, IR-Grb14 interaction (Homo sapiens, UniProt P06213); assay: Co-immunoprecipitation of IR-Luc with Grb14-YFP in a cell-free system (Western blot); format: binding; conditions: for reduction of the amount of co-precipitated IR-Luc: dose series, results not shown
# T1 construct: a vector encoding the insulin receptor fused to the luciferase (IR-Luc); made in house; host or cells: HEK293T (transfected); IR-Luc was partially purified on wheat germ lectin sepharose; Grb14-YFP was used as crude lysate
# T1 sequence (P06213 763-1382 limits assumed): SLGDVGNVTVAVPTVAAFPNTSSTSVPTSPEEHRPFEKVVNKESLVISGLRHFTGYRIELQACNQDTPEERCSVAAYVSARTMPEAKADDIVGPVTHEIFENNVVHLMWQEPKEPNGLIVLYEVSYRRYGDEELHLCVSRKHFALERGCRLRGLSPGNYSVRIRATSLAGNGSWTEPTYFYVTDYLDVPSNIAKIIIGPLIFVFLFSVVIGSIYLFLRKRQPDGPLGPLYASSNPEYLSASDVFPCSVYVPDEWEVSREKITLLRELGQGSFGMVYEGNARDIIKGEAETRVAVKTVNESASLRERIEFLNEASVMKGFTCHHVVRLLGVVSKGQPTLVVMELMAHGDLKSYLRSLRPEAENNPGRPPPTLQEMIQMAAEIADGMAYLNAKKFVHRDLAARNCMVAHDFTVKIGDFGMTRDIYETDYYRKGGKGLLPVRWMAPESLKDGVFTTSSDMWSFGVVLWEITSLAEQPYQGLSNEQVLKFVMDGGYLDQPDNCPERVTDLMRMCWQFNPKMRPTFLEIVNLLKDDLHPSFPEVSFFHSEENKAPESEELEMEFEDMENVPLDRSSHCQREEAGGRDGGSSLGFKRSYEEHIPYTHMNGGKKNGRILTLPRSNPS
# T1 sequence (P06213 28-758 partner limits assumed): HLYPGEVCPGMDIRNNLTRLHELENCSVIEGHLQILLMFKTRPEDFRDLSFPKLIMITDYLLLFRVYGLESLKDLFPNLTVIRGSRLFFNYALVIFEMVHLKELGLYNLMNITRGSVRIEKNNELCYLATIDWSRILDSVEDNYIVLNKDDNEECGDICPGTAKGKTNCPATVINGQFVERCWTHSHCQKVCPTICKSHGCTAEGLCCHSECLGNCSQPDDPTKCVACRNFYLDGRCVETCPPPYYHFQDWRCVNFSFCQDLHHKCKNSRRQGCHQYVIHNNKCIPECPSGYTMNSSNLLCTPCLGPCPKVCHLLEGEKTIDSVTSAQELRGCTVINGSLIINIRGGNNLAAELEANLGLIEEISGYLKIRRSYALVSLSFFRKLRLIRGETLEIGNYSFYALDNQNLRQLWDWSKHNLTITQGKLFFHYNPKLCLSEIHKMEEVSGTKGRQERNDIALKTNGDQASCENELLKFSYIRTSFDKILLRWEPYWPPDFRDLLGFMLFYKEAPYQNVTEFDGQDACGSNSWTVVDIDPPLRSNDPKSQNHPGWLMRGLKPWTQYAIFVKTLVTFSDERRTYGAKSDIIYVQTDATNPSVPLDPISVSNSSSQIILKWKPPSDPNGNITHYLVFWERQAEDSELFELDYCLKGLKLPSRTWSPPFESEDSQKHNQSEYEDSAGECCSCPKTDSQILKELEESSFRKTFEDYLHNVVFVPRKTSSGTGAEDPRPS
# Protocol: The inhibitory effect of the compounds according to the invention on the IR-Grb14 interaction has been confirmed in co-immunoprecipitation experiments in a cell-free system. IR-Luc extracts, stimulated or not by insulin, […] before being incubated with the cellular extract containing the fusion protein Grb14-YFP for 40 minutes. Immunoprecipitation against YFP allows to analyze by Western blot the amount of receptor that has remained associated with the Grb14 protein.
# [2] = target: T2, IRTK-Grb14 interaction (Homo sapiens, UniProt P06213); assay: Co-immunoprecipitation of IRTK48-RLuc with Grb14-YFP in co-transfected HEK 293T cells; format: cell-based; conditions: 50 μM; 4 hours; no insulin
# T2 construct: a construct bearing only the tyrosine kinase domain of the luciferase-fused receptor (IRTK48-RLuc); expressed in transfected cells; host or cells: HEK 293T
# T2 sequence (P06213 1023-1298 limits assumed): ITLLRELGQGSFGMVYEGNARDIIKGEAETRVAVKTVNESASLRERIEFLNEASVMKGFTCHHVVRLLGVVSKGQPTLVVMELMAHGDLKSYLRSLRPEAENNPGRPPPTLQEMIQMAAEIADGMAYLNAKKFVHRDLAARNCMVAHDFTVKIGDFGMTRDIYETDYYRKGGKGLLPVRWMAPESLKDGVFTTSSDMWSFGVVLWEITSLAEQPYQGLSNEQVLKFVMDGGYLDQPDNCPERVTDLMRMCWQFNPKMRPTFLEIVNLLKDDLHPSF
# Protocol: HEK 293T cells co-transfected with a construct bearing only the tyrosine kinase domain of the luciferase-fused receptor (IRTK48-RLuc) and the Grb14 protein fused to YFP were incubated for 4 hours in the presence of compounds according to the invention. In the absence of α subunits, the tyrosine kinase domain of the insulin receptor spontaneously autophosphorylates, so it is not necessary to add insulin to stimulate the IRTK-Grb14 interaction.
# [3] = target: T3, IRTK-Grb10 interaction (Homo sapiens, UniProt P06213); assay: Co-immunoprecipitation of IRTK48-RLuc with Grb10-YFP in co-transfected HEK 293T cells; format: cell-based; conditions: same experiment as with Grb14
# T3 construct: a construct bearing only the tyrosine kinase domain of the luciferase-fused receptor and the Grb10 protein fused to YFP; expressed in transfected cells; host or cells: HEK 293T
# T3 sequence (P06213 1023-1298 limits assumed): as above
# Protocol: In order to test the specificity of the compound of Formula (Ia) on this IRTK-Grb14 interaction, the same experiment was conducted with HEK 293T cells co-transfected with a construct bearing only the tyrosine kinase domain of the luciferase-fused receptor and the Grb10 protein fused to YFP. Indeed, the Grb10 protein also binds to the phosphorylated insulin receptor and inhibits its catalytic activity.
# [4] = tested on: PI3K/Akt pathway; assay: Luc-Akt-PH/YFP-membrane BRET in HEK293T cells (recruitment of Akt to the membrane); format: cell-based; conditions: for BRET delta (recruitment of the Akt protein to the membrane): 50 μM
# Source text: (§1) To measure the activity of the PI3-kinase pathway by the BRET technique, HEK293T cells are transfected with plasmids allowing, on the one hand, the expression of the PH (Pleckstrin Homology) domain of the Akt protein which has been fused to the luciferase and, on the other hand, a membrane-addressing sequence which has been fused to the YFP protein. When the PH domain of Akt is recruited to the membrane by the PIP3s, an energy transfer between the luciferase that is coupled to the PH domain of Akt and the membrane YFP protein takes place. The measured BRET signal is a control of the production of PIP3s at the membrane and is a reflection of the activation of the PI-3-kinase/Akt pathway in real time on cells.
# [5] = tested on: PI3K/Akt pathway; assay: Luc-Akt-PH/YFP-membrane BRET in MCF7 line; format: cell-based; conditions: 50 μM, MCF7 cells
# Protocol: FIG. 5A and FIG. 5B, the effect of the compound of Formula (Ia) according to the invention (black bars) on the activation of the PI3K/Akt pathway measured by the Luc-Akt-PH/YFP-membrane BRET technique compared to the DMSO (Dimethylsulfoxide) control (white bars) as measured on (FIG. 5A) HEK293T cells pre-incubated or not for 1 h with tyrosine kinase inhibitor AG1024 at a concentration of 25 μM final or on (FIG. 5B) an MCF7 line doubly and stably transfected with the vectors encoding Luc-Akt-PH and YFP-membrane. The results, expressed as BRET delta, are the average of 3 to 8 independent experiments (**p<0.01, ***p<0.001, by Newman-Keuls multiple comparison test).
# as §1, with “cells. […]” for “cells.”
# [6] = tested on: SREBP-1c, ACC, FAS and SCD1 expression; assay: Expression of lipogenesis genes in hepatocytes in primary culture (RT-qPCR); format: cell-based, mouse; conditions: condition G25i (25 mM glucose, 10 nM insulin), 24 h
# Protocol: FIG. 7, the effect of the compound of Formula (Ia) according to the invention (black bars) on the expression of insulin target genes, SREBP-1c, ACC, FAS, and SCD1 (FIGS. 7A-D, respectively) involved in the lipogenesis pathway. Hepatocytes in primary culture are cultured in the presence of 5 mM glucose (G5) or 25 mM glucose (G25) and 10 nM insulin for 24 h. The relative quantification of mRNAs is performed by RT-qPCR. The values are related to the quantification of the 18S gene in the same sample in order to normalize the results. The results are the average of 3 to 5 independent experiments (*p<0.05 by Anova followed by a Newman-Keuls test).
# Briefly, mouse hepatocytes in primary culture are cultured in the presence of 5 mM glucose (G5) or 25 mM glucose (G25), and 10 nM insulin for 24 h. The relative quantification of mRNAs is performed by RT-qPCR and the values are related to the quantification of the 18S gene from the same sample in order to normalize the results.
# [7] = absence of insulin, results not shown
structure (smiles),measurement,setting,value
Cc1ccc(/C=C/C(=O)Nc2ccc(S(=O)(=O)Nc3onc(C)c3C)cc2)o1 [Ia],reduction of the amount of co-precipitated IR-Luc,[1]; 25 μM,20%
same,reduction of the amount of co-precipitated IR-Luc,[1]; 50 μM,50%
same,inhibition at 50 µM,"[1]; 50 μM, in the presence of insulin, read-out: reduction of the amount of insulin receptors associated with the Grb14 protein",60%
same,reduction of the amount of tyrosine kinase domain of the insulin receptor co-immunoprecipitated with the Grb14 protein,[2],75%
same,amounts of tyrosine kinase domain of the insulin receptor co-immunoprecipitated with the Grb10 protein,[3],does not change
same,BRET delta (recruitment of the Akt protein to the membrane),[4]; absence of insulin,about 86
same,BRET delta (recruitment of the Akt protein to the membrane),[4]; presence of 5 nM insulin,about 121
same,concentration at which the increase in the BRET signal / PI3K/Akt activation is significant,[4]; [7],10 µM
same,concentration from which the effect on the BRET signal is detectable,[4]; [7],5 µM
same,effect on the recruitment of the Akt protein to the membrane after AG1024,"[4]; cells pre-incubated 1 h with 25 μM AG1024, Ia 50 μM, insulin 5 nM",no longer have any effect
same,BRET delta,[4]; without insulin,86 (+/−41)
same,effect on the production of PIP3s at the membrane,[5]; absence of insulin,no effect
same,effect on the production of PIP3s at the membrane,[5]; presence of 100 nM insulin,no effect
same,increase of the effect of insulin on the expression of ACC,[6],about 60%
same,increase of the effect of insulin on the expression of FAS,[6],about 60%
same,increase of the effect of insulin on the expression of SCD1,[6],about 60%
same,increase of the effect of insulin on the expression of SREBP-1c,[6],about 60%
